Measurements reported in US12485182B2, “Proteoglycan mimetics for enhanced wound healing, angiogenesis, and vascular repair” (The Regents of the University of California, priority 2018, dated 2025).
“Also recorded” adds a separate entry of the source. Positions of bridges follow the written chain, without caps; N, C: chain ends. Non-standard residues stand in square brackets, D forms with d. No end group written: not given here.

Key:
platelets [1] = assay: Platelet binding and activation on a collagen surface in vitro; assay type: cell-based
denuded arteries [2] = assay: Ossabaw pig angioplasty model, neointimal hyperplasia (1-month recovery); assay type: in vivo; settings: with and without stents, vs sham
Procedure: (§1) An In vivo Ossabaw pig angioplasty model was used to assess platelet deposition (acute) and neointimal hyperplasia (1-month recovery) with DS-SILY treatment. Porous angioplasty balloons were employed for delivery of soluble DS-SILY to the target arteries in the peripheral vasculature of pigs. Renal, femoral, and iliac arteries were denuded by balloon expansion, followed by delivery through the porous balloon. Arteries were treated with and without the use of a bare metal stent and the healing response was assessed for neointimal hyperplasia. Neointimal hyperplasia was assessed by histology after 1-month recovery by measuring the distance between the internal elastic lamina and the lumen, or between a stent post and the lumen (FIG. 32).

[3] = tested on: platelets (platelet-rich plasma); assay: Platelet binding under flow on collagen-coated microchannels; assay type: cell-based; settings: PRP, shear rate 750 s^−1, 4 minutes
Procedure: Flow kits from Ibidi (Martinsried, Germany) were used to measure […] recruitment under flow conditions. Microchannels were coated with equine fibrillar type I collagen (Chronolog, Havertown, PA) diluted in 0.85% sodium chloride and incubated for one hour at room temperature. Unbound collagen was removed by rinsing three time with 1×PBS. The treatment molecule (DS-SILY, LXW7-DS-SILY, or LXW7-(SILY)2) was incubated in the channel for 30 minutes at room temperature, and unbound peptidoglycan was rinsed with 1× PBS.
Next, 15 mL of blood was drawn into sodium citrate vacutainers by venipuncture and centrifuged for 20 minutes at 200 Gs and 37° C. and the top layer of platelet-rich plasma (PRP) was collected. A syringe pump was used to flow PRP through microchannels at 4.2 mL/hr for a shear rate of 750 s^−1. After 4 minutes, the channels were rinsed with 100 μL, PBS to remove unbound cells. Adherent cells were stained with 10 μM CellTracker Green (ThermoFisher Scientific) in media for 30 minutes at 37° C. Channels were rinsed with 1× PBS and total fluorescence and cell number in the channels were quantified using ImageJ (NIH, Bethesda, MD).

EC = EC migration on collagen surfaces; assay type: cell-based
SMCs = assay: DS-SILY effects on SMCs; assay type: cell-based
collagen = assay: DS-SILY binding to collagen
denuded arteries [4] = assay: Ossabaw pig angioplasty model, platelet deposition (acute); assay type: in vivo; settings: vs saline
Procedure: as §1, with “hyperplasia.” for “hyperplasia. Neointimal hyperplasia was assessed by histology after 1-month recovery by measuring the distance between the internal elastic lamina and the lumen, or between a stent post and the lumen (FIG. 32).”
Arteries for assessing the acute response of balloon injury were harvested within hours of angioplasty. The arteries were rinsed with saline and fixed in 10% formalin overnight, and prepared for SEM visualization. […] High magnification images in FIG. 31 show numerous projections and spreading of platelets on sham control arteries, indicative of platelet activation.

HMVEC monolayer = assay: Endothelial monolayer permeability (transwell, RITC-dextran); assay type: cell-based, human; settings: by 72 hours
Procedure: The following day, an additional 50,000 cells were seeded to each insert and allowed to grow for another 24 hours. Media was then removed and replaced with 0.5 mL media to the bottom well and 0.1 mL of treatment media to the insert for 10 minutes. Treatment was removed and 0.3 mL of 1 mg/mL RITC-dextran in media was then added to each transwell insert and allowed to permeate for 30 minutes. Sample permeate was then assayed on a SpectraMax M5 plate reader for fluorescence (excitation: 570 nm; emission: 590 nm). RITC-dextran solutions and sample permeates were then aspirated and replaced with another 0.1 mL of treatment media in the transwell insert and 0.5 mL media in the bottom chamber. This procedure was repeated daily over 4 days. Treatments were also compared to inserts with cells removed by rubbing away with a pipette tip to determine the barrier efficacy of the monolayer and the degree of increased permeability.

ischemic wounds = settings: exogenous VEGF; cited from earlier work
[5] = tested on: chick chorioallantoic membrane; assay: Ex ovo CAM assay, treatments eluting from collagen gels; assay type: in vivo; settings: after 24 hours
Procedure: Fertilized Hyline eggs obtained from the Avian Facility at UC Davis were incubated at 37° C. for 72 hours with 6 rotations per day at 80% humidity in a Grumbach egg incubator. On day 3, eggs were cracked open into disinfected weighboats (VWR) and covered with lids from square petri dishes (Fisher), and the embryos developed over a week in the incubator. On day 10, treatments encapsulated in collagen I gels were gently placed on the developing CAM. For experiments involving treatments freely eluting from the collagen gels, 100 μL of gel was polymerized in a 10-mm diameter rubber mold against a sterilized glass slide, and 1 treatment gel and 1 control gel was placed per CAM. The number of vessels in a 2-mm radius immediately surrounding the gel was manually counted in imageJ immediately after placement and 24 hours later to determine changes surrounding vessels. The change in vessels over 24 hours for treatment gels were normalized to the respective change in the control gel on the same developing embryo.

THP-1 monocytes [6] = assay: LXW7 binding to THP-1 monocytes; assay type: cell-based
Procedure: (§2) Using primary artery-derived ECs and blood-derived EPCs as living probes to screen One-Bead-One-Compound (OBOC) combinatorial peptide libraries, several high-affinity binding ligands against the αvβ3 integrin on the surface of EPCs/ECs were identified. […] The LXW7 peptide, when grafted to surfaces, supports adhesion and spreading of EPCs and human coronary ECs, but not platelets or monocytes. Culture plates, 24-well, were coated with 500 μL of 20 μg/mL Avidin for 1 hour at 37° C. followed by washing with PBS and coating with either 500 μL molar equivalents of D-biotin, LXW7-biotin, or GRGD (SEQ ID NO: 2)-biotin. After washing with PBS and blocking with 1% BSA wells were ready for cell attachment with 5×10^4 HCAECs or THP-1 monocytes suspended in the respective maintenance medium, or freshly isolated platelets at a density of 5×10^7 platelets/cm^2 incubated for 16 h at 37° C., 5% CO2. The cells were washed with PBS, and fixed in 10% formalin for 20 min. For evaluation of HCAEC, the cells were blocked with 1% BSA and incubated overnight with mouse anti-CD31 antibody (1:100; Abcam) in 1% BSA at 4° C., followed by probing with goat anti-mouse Alexa Fluor 594 conjugate in 1% BSA. Nuclei were stained with DAPI. Images were captured using an Olympus IX81 microscope. […] Quantification of images was performed using the Image J software (NIH).

platelets [7] = assay: LXW7 binding to platelets; assay type: cell-based
Procedure: as §2

primary EPCs/ECs = assay: LXW7 binding to primary EPCs/ECs; assay type: cell-based
Procedure: as §2

ERK1/2 = assay: Western-blot, phosphorylation of ERK1/2; assay type: cell-based; settings: surface-grafted LXW7
Description: (§3) FIG. 34. Effects of LXW7 on EC biological functions. (A) Proliferation of ECs on LXW7-treated surfaces and D-biotin treated surface (control) assessed by MTS assay. Data were expressed as mean±standard deviation: **p<0.01, ***p<0.001 (n=4). (B) Western-blot analysis of the effect of LXW7 on phosphorylation of VEGFR2 (Tyr1175) and phosphorylation of ERK1/2 (left panels) and quantified by densitometry (right panels). Data were expressed as mean±standard deviation: *p<0.05, **p<0.01 (n=4).
(§4) To test the ability of LXW7 to promote endothelialization, we evaluated polymer-based small diameter vascular grafts (ID 1 mm) functionalized with LXW7 via Click chemistry in a rat carotid artery bypass model (FIG. 35). […] After 6 weeks post implantation, 5 out of 6 LXW7-modified grafts were patent versus only 1 out of 6 control grafts was patent (FIG. 35). […] This confirms that LXW7 coating on the luminal surface of synthetic vascular grafts can generate a “living” endothelium.

HCAECs = assay: Attachment of HCAECs to peptide-treated surfaces; assay type: cell-based, human; settings: biotin-peptide on Avidin-coated wells
Description: (§5) FIG. 33. Attachment of cells and platelets to LXW7 and GRGD (SEQ ID NO: 2) treated surfaces. (A) Images of attached HCAECs (left panels), THP-1 monocytes (middle panels) and platelets (right panels) on surfaces treated by D-Biotin (a-c) (control), LXW7 (d-f) or GRGD (SEQ ID NO: 2) (g-i). Scale bars in a, b, d, e, g and h are 50 μm. Scale bars in c, f and i are 20 μm. (B) The number of cells or platelets attached on different treated surfaces were quantified and statistical analyses were performed. Data were expressed as mean±standard deviation: **p<0.01 (n=4).
(§6) Using primary artery-derived ECs and blood-derived EPCs as living probes to screen One-Bead-One-Compound (OBOC) combinatorial peptide libraries, several high-affinity binding ligands against the αvβ3 integrin on the surface of EPCs/ECs were identified. […] The LXW7 peptide, when grafted to surfaces, supports adhesion and spreading of EPCs and human coronary ECs, but not platelets or monocytes. […] After washing with PBS and blocking with 1% BSA wells were ready for cell attachment with 5×10^4 HCAECs or THP-1 monocytes suspended in the respective maintenance medium, or freshly isolated platelets at a density of 5×10^7 platelets/cm^2 incubated for 16 h at 37° C., 5% CO2. […] Quantification of images was performed using the Image J software (NIH).

THP-1 monocytes [8] = assay: Attachment of THP-1 monocytes to peptide-treated surfaces; assay type: cell-based; settings: biotin-peptide on Avidin-coated wells
Description: as §5, §6

VEGFR2 = assay: Western-blot, phosphorylation of VEGFR2 (Tyr1175); assay type: cell-based; settings: surface-grafted LXW7
Description: as §3, §4

platelets [9] = assay: Attachment of platelets to peptide-treated surfaces; assay type: cell-based; settings: biotin-peptide on Avidin-coated wells
Description: as §5, §6

ECs = assay: Proliferation of ECs on LXW7-treated surfaces (MTS assay); assay type: cell-based; settings: surface-grafted LXW7 vs D-biotin control
Description: as §3, §4

Substance: DS-SILY: antithrombotic proteoglycan mimetic; dermatan sulfate with collagen-binding SILY peptides (RRANAALKAGELYKSILYGSG; not fully specified; also: conjugated to dermatan sulfate backbone, attachment not given here)
- inhibition of platelet binding and activation on a collagen surface (platelets [1]): ~90%
- neointimal hyperplasia (denuded arteries [2]): minimal intimal hyperplasia is observed
- platelet binding under flow [3]: low platelet binding
- promotion of EC migration compared to control collagen surfaces (EC): up to 32%
- SMC migration and proliferation (SMCs): suppresses SMC migration and proliferation
- inflammatory cytokine production (SMCs): suppresses inflammatory cytokine production
- protein production by SMCs (SMCs): suppresses, but does not eliminate protein production by SMCs
- binding to collagen (collagen): high affinity
- platelet activation (morphology) on denuded artery (denuded arteries [4]; SEM): remained largely rounded
- platelet binding on denuded artery (denuded arteries [4]; delivery through porous balloon after balloon angioplasty): platelets are scarcely found on the denuded artery; also recorded: almost completely inhibited platelet binding

Substance: VEGF
- monolayer permeability vs untreated controls (HMVEC monolayer): significantly different from untreated controls
- increase in granulation tissue formation (ischemic wounds): up to 150%
- vasculogenic activity ([5]; 2 μg/mL): comparable vasculogenic activity

Substance: cyclic cGRGDdvc ([dC]GRGD[dD][dV][dC]; disulfide 1-8 (inferred)) [LXW7, cyclic octapeptide ligand against the αvβ3 integrin]
- binding to THP-1 monocytes (THP-1 monocytes [6]): does not bind
- binding to platelets (platelets [7]): weakly
- binding to primary EPCs/ECs (primary EPCs/ECs): bind strongly
- phosphorylation of ERK ½ (ERK1/2): stimulated
- HCAEC binding to treated surface (HCAECs): supported robust HCAEC binding
- monocyte binding to treated surface (THP-1 monocytes [8]): not monocyte or platelet binding
- surrounding vessel growth ([5]; 100 μM eluted from collagen gels): either decreased or caused no changes in surrounding vessel growth
- phosphorylation of VEGF2 receptor (VEGFR2): stimulated
- platelet binding to treated surface (platelets [9]): not monocyte or platelet binding
- cell proliferation (ECs): stimulated cell proliferation
